The values below come from patent publication US20090275610A1, “TRICYCLIC OPIOID MODULATORS” (priority 2005, published 2009).

One assay concerns the target T1, delta opioid receptor (Rattus norvegicus, UniProt P33533).
T1 construct: the forebrains were homogenized in Tris buffer in a Teflon®-glass homogenizer; from tissue; host or cells: forebrain of male Wistar rats (particulate membrane preparation)
The experiment in a line: Rat brain delta opioid receptor binding assay. The conditions noted are these: rat forebrain membranes, [3H]DPDPE or [3H]naltrindole, 25° C., 2.5 h. On the procedure: Rat Brain Delta Opioid Receptor Binding Assay
(§1) Procedure: Male, Wistar rats (150-250 g, VAF, Charles River, Kingston, N.Y.) were killed by CO2, and their brains removed and placed immediately in ice cold Tris HCl buffer (50 mM, pH 7.4). The forebrains were separated from the remainder of the brain by a coronal transection, beginning dorsally at the colliculi and passing ventrally through the midbrain-pontine junction. After dissection, the forebrains were homogenized in Tris buffer in a Teflon®-glass homogenizer. The homogenate was diluted to a concentration of 1 g of forebrain tissue per 80 mL Tris and centrifuged at 39,000×g for 10 min. The pellet was resuspended in the same volume of Tris buffer containing 5 mM MgCl2 with several brief pulses from a Polytron homogenizer. This particulate preparation was used for the delta opioid binding assays.
Analysis: The data from the scintillation counter were used to calculate either the % inhibition compared to control binding (when only a single concentration of test compound was evaluated) or a Ki value (when a range of concentrations was tested). Percent inhibition was calculated as: [(total dpm−test compound dpm)/(total dpm−nonspecific dpm)]*100. Kd and Ki values were calculated using GraphPad PRISM data analysis program.

Assay [1] has as its target T2, delta opioid receptor (NG108-15 cell membranes) (Mus musculus, UniProt P32300).
T2 construct: NG108-15 cell membranes were purchased from Applied Cell Sciences (Rockville, Md.); host or cells: NG108-15 cell membranes (purchased)
The experiment in a line: [35S]GTPγS binding assay in NG108-15 cell membranes (delta opioid). Type of assay: biochemical. On the procedure: Functional Assay: [^35S]GTPγS Binding Assay in NG108-15 Cell Membranes (Delta Opioid)
Methods: NG108-15 cell membranes were purchased from Applied Cell Sciences (Rockville, Md.). A sample (8 mg/mL) of membrane protein suspended in 10 mM TRIS-HCl pH 7.2, 2 mM EDTA, 10% sucrose. Membranes were maintained at 4-8° C. A 1 mL volume of membranes was added into 10 mL cold binding assay buffer. The assay buffer contained 50 mM Tris, pH 7.6, 5 mM MgCl2, 100 mM NaCl, 1 mM DTT and 1 mM EGTA. The membrane suspension was homogenized twice with a Polytron, and centrifuged at 3000 rpm for 10 min. The supernatant was then centrifuged at 18,000 rpm for 20 min. Ten mL assay buffer was added into the pellet containing tube. The pellet and buffer were mixed with a Polytron.
Incubation procedure: The pellet membranes (75 μg/mL) were preincubated with SPA (10 mg/mL) at 25° C. for 45 min in the assay buffer. The SPA (5 mg/mL) coupled with membranes (37.5 μg/mL) was then incubated with 0.1 nM [^35S]GTPγS in the same Tris buffer containing 100 μM GDP in total volume of 200 μL. Increasing concentrations of receptor agonists were used to stimulate [^35S]-GTPγS binding. The basal binding was tested in the absence of agonists and non-specific binding was tested in the presence of 10 μM unlabeled GTPγS. The data were analyzed on a Packard Top Count.
% of Basal=(stimulated−non specific)*100/(basal−non specific).
(§2) EC50 values were calculated using GraphPad Prism.

The target of a further assay is T3, mu opioid receptor (Rattus norvegicus, UniProt P33535).
T3 construct: the forebrains were homogenized in Tris buffer in a Teflon®-glass homogenizer; from tissue; host or cells: forebrain of male Wistar rats (particulate membrane preparation)
T3 sequence (P33535 whole entry): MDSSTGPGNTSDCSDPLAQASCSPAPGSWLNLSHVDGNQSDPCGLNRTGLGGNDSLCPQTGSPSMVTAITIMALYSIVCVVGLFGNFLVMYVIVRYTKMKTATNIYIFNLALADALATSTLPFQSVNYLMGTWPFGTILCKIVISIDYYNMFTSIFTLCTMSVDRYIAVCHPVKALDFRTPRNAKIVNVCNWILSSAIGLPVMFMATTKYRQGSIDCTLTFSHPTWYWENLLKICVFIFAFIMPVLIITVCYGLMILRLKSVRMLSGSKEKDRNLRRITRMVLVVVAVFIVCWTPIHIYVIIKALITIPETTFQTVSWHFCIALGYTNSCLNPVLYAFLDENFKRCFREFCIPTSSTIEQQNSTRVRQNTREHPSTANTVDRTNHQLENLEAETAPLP
In words: Rat brain mu opioid receptor binding assay. The conditions noted are these: rat forebrain membranes, [3H]DAMGO, 25° C., 2.5 h. On the procedure:
Rat Brain Mu Opioid Receptor Binding Assay
as §1
Analysis: The data from the scintillation counter were used to calculate either the % inhibition compared to control binding (when only a single concentration of test compound was evaluated) or a Ki value (when a range of concentrations tested). Percent inhibition was calculated as: [(total dpm−test compound dpm)/(total dpm−nonspecific dpm)]*100. Kd and Ki values were calculated using GraphPad PRISM data analysis program.

Assay [2] deals with T4, hMOR (CHO-hMOR cell membranes) (Homo sapiens, UniProt P35372).
T4 construct: host or cells: CHO cells expressing hMOR (purchased membranes)
T4 sequence (P35372 whole entry): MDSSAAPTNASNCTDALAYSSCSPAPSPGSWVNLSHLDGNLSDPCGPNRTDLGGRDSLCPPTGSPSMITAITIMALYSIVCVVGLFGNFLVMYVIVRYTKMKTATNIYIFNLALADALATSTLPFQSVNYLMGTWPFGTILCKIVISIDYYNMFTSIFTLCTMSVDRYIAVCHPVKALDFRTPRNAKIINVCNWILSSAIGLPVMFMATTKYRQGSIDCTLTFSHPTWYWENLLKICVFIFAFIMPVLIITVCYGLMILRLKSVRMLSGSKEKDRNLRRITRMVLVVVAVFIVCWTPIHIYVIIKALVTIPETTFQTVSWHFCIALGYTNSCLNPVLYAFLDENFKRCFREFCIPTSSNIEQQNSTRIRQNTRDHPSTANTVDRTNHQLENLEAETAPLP
The experiment in a line: [35S]GTPγS binding assay in CHO-hMOR cell membranes. Type of assay: biochemical. As to the method:
Functional Assay: [^35S]GTPγS Binding Assays in CHO-hMOR Cell Membranes
Methods: CHO-hMOR cell membranes were purchased from Receptor Biology, Inc. (Baltimore, Md.). About 10 mg/mL of membrane protein was suspended in 10 mM TRIS-HCl pH 7.2, 2 mM EDTA, 10% sucrose, and the suspension kept on ice. A 1 mL volume of membranes was added to 15 mL cold binding assay buffer containing 50 mM HEPES, pH 7.6, 5 mM MgCl2, 100 mM NaCl, 1 mM DTT and 1 mM EDTA. The membrane suspension was homogenized with a Polytron and centrifuged at 3,000 rpm for 10 min. The supernatant was then centrifuged at 18,000 rpm for 20 min. The pellet was resuspended in 10 mL assay buffer with a Polytron. The membranes were preincubated with wheat germ agglutinin coated SPA beads (Amersham) at 25° C. for 45 min in the assay buffer. The SPA bead (5 mg/mL) coupled membranes (10 μg/mL) were then incubated with 0.5 nM [^35S]GTPγS in the assay buffer. […] A range of concentrations of receptor agonist was used to stimulate [^35S]GTPγS binding. Both basal and non-specific binding was tested in the absence of agonist; non-specific binding determination included 10 μM unlabeled GTPγS.
Compounds were tested for function as antagonists by evaluating their potential to inhibit agonist-stimulated GTPγS binding. Radioactivity was quantified on a Packard TopCount. The following parameters were calculated:
as §2
(GTPγS is a poorly hydrolysed GTP analogue; its binding reports G protein activation.)

[3] abbreviates: read-out: rDOR (Ki, nM): Rat delta opioid receptor binding constant.
[4] abbreviates: read-out: delta GTPγS binding EC50.
[5] abbreviates: read-out: rMOR (Ki, nM): Rat mu opioid receptor binding constant.
Where [6] appears, read: CHO-hMOR cell membranes, read-out: mu GTPγS binding EC50.
Setting [7] is: rDOR (Ki, nM): Rat delta opioid receptor binding constant.
Setting [8] is: rMOR (Ki, nM): Rat mu opioid receptor binding constant.

“And” between values parts separate entries of the source, which are not always exact repeats. Equal entries are not always repeated. Where two headings read alike, the source gives them in different places.

T2 sequence (P32300 whole entry): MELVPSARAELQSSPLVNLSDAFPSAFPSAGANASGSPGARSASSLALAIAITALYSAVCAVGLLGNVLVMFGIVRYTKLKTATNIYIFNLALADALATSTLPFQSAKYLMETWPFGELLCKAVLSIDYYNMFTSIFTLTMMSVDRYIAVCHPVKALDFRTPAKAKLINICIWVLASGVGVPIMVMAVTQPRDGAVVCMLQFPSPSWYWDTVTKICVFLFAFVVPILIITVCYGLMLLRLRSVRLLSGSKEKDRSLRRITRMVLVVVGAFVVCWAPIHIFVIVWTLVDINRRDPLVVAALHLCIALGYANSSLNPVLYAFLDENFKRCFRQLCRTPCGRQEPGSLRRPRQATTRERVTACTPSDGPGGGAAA
T1 sequence (P33533 whole entry): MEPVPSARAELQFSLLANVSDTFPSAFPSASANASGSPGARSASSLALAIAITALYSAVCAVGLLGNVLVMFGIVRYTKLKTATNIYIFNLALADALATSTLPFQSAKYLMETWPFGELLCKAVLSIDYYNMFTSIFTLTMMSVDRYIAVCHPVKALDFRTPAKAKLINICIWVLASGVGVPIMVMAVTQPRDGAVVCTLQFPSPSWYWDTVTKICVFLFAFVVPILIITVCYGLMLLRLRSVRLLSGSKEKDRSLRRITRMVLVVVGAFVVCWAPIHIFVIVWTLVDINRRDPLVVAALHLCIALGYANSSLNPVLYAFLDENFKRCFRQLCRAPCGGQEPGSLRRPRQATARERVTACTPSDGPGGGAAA

As to `Oc1cccc2c1Oc1ccccc1C2=C1CC2CCC(C1)N2Cc1ccncc1` [Cpd 22], the Ki at delta opioid receptor (setting [3]) was determined as 0.97 nM; on mu opioid receptor (setting [5]), 358 nM. The EC50 in assay [1] (setting [4]) is 2720 nM; in assay [2] (setting [6]) it was above 10000 nM.
On the same counts, the results for `Oc1cccc2c1Oc1ccccc1C2=C1CC2CCC(C1)N2Cc1cccs1` [Cpd 24] are 0.046 nM, 1.58 nM, 6.05 nM and above 10000 nM.
For `NC(=O)c1cccc2c1Oc1ccccc1C2=C1CC2CCC(C1)N2Cc1ccoc1` [Cpd 4, 9-(8-Furan-3-ylmethyl-8-azabicyclo[3.2.1]oct-3-ylidene)-9H-xanthene-4-carboxylic acid amide], the Ki on delta opioid receptor (setting [7]) worked out at 2.3 nM; at mu opioid receptor (setting [8]), 2.5 nM. For the same molecule, the EC50 in assay [1] (setting [4]) turned out to be 9.4 nM; in assay [2] (setting [6]) it was 4040 nM.
For the molecule `CN1C2CCC1CC(=C1c3ccccc3Oc3c(O)cccc31)C2` [Cpd 19, 9-(8-Methyl-8-azabicyclo[3.2.1]oct-3-ylidene)-9H-xanthen-4-ol], the Ki on delta opioid receptor (setting [7]) stood at 28.3 nM; on mu opioid receptor (setting [8]), 372 nM. For the same molecule, the EC50 was 768 nM in assay [1] (delta GTPγS binding EC50 (nM)) and above 10000 nM in assay [2].
On the same counts, the results for `Oc1cccc2c1Oc1ccccc1C2=C1CC2CCC(C1)N2Cc1ccccn1` [Cpd 21, 9-(8-pyridin-2-ylmethyl-8-azabicyclo[3.2.1]oct-3-ylidene)-9H-xanthen-4-ol] are 0.007 nM, 0.1 nM, 21.8 nM and above 10000 nM.
As for `Oc1cccc2c1Oc1ccccc1C2=C1CC2CCC(C1)N2CC1CC1` [Cpd 26], the Ki at delta opioid receptor (setting [3]) turned out to be 5.43 nM; on mu opioid receptor (setting [5]) it was 65.9 nM. The EC50 in assay [1] (setting [4]) was 194 nM; in assay [2] (setting [6]), above 10000 nM.
Turning to `O=C(Nc1ccccc1)c1cccc2c1Oc1ccccc1C2=C1CC2CCC(C1)N2` [Cpd 12, 9-(8-Azabicyclo[3.2.1]oct-3-ylidene)-9H-xanthene-4-carboxylic acid phenylamide], the Ki on delta opioid receptor (setting [7]) is 272 nM and 67.9 nM; on mu opioid receptor (setting [8]), 32 nM. Moreover, the figures for the EC50 in assay [1] (delta GTPγS binding EC50 (nM)) and in assay [2] were 30.3 nM and 611 nM, respectively. Moreover, the “delta GTPγS binding Rel Eff” value in assay [1] (value in parentheses) is on record as 1.03. The “mu GTPγS binding Rel Eff” value in assay [2] (CHO-hMOR cell membranes, value in parentheses) was 0.96.
`Oc1cccc2c1Oc1ccccc1C2=C1CC2CCC(C1)N2Cc1ccccc1` [Cpd 32, 9-(8-benzyl-8-azabicyclo[3.2.1]oct-3-ylidene)-9H-xanthen-4-ol]: the figures for the Ki at delta opioid receptor (setting [7]) and on mu opioid receptor (setting [8]) were 0.023 nM and 0.29 nM, respectively. The figures for the EC50 in assay [1] (delta GTPγS binding EC50 (nM)) and in assay [2] were 28.6 nM and above 10000 nM, respectively.
On to `Oc1cccc2c1Oc1ccccc1C2=C1CC2CCC(C1)N2Cc1ncc[nH]1` [Cpd 34], for which the results for the Ki on delta opioid receptor (setting [3]) and at mu opioid receptor (setting [5]) were 0.028 nM and 0.53 nM, respectively. The EC50 in assay [1] (setting [4]) came out at 3.33 nM; in assay [2] (setting [6]), 1610 nM.
For `CC=C(C)CN1C2CCC1CC(=C1c3ccccc3Oc3c(O)cccc31)C2` [Cpd 27], the figures for the Ki at delta opioid receptor (setting [3]) and on mu opioid receptor (setting [5]) were 0.35 nM and 2.03 nM, respectively. Besides, the EC50 in assay [1] (setting [4]) is 9.8 nM; in assay [2] (setting [6]), above 10000 nM.
Consider `Oc1cccc2c1Oc1ccccc1C2=C1CC2CCC(C1)N2` (single isomer, unassigned) [Cpd 8, 9-(8-Azabicyclo[3.2.1]oct-3-ylidene)-9H-xanthen-4-ol], for which the Ki was found to be 0.56 nM at delta opioid receptor (setting [7]) and 3.5 nM at mu opioid receptor (setting [8]). Besides, the EC50 came out at 9.98 nM in assay [1] (delta GTPγS binding EC50 (nM)) and 902 nM in assay [2].
As to `Oc1cc(CN2C3CCC2CC(=C2c4ccccc4Oc4c(O)cccc42)C3)ccn1` [Cpd 23], the values for the Ki on delta opioid receptor (setting [3]) and on mu opioid receptor (setting [5]) were 1.5 nM and 2.18 nM, respectively. The EC50 stood at 52.8 nM in assay [1] (setting [4]) and 12400 nM in assay [2] (setting [6]).
In the case of `Oc1cccc2c1Oc1ccccc1C2=C1CC2CCC(C1)N2Cc1ccoc1` [Cpd 25, 9-(8-Furan-3-ylmethyl-8-aza-bicyclo[3.2.1]oct-3-ylidene)-9H-xanthen-4-ol], the Ki was determined as 0.26 nM on delta opioid receptor (setting [7]) and 0.56 nM on mu opioid receptor (setting [8]). Further, the EC50 in assay [1] (delta GTPγS binding EC50 (nM)) was found to be 1.08 nM; in assay [2], 2810 nM.
Regarding `Oc1cccc2c1Oc1ccccc1C2=C1CC2CCC(C1)N2CCc1ccccc1` [Cpd 30], the Ki is 63.5 nM at delta opioid receptor (setting [3]) and 27.7 nM at mu opioid receptor (setting [5]). For the same molecule, the EC50 in assay [1] (setting [4]) is 2960 nM; in assay [2] (setting [6]) it was above 10000 nM.
